The source made the active and inactive calls.
What was measured:
[1] = molecular target: T1, Sentrin-specific protease 1 (Homo sapiens, UniProt Q9P0U3); assay: Dose response confirmation of small molecule inhibitors of the catalytic domain of the SUMO protease, SENP1 in a FRET assay.; type: functional; details: read-out: IC50_Mean
Troponin, cardiac muscle = Troponin, cardiac muscle (Homo sapiens, UniProt P19429+P45379+P63316); assay: Fluorescence-based biochemical high throughput dose response assay for activators of the calcium sensitivity of cardiac Regulated Thin Filaments (RTF). [Related pubchem assays (depositor defined):AID493008, AID493018, AID504382, AID504383]; type: protein-complex assay
[2] = molecular target: T1, Sentrin-specific protease 1; assay: potency of human SENP1 inhibitors, dose response, biochemical, kinetic FRET (AID 651697); type: functional; details: read-out: IC50_Mean
[3] = molecular target: T2, DNA repair protein RAD52 homolog (Homo sapiens, UniProt P43351); type: functional, biochemical
T2 sequence (P43351 whole entry): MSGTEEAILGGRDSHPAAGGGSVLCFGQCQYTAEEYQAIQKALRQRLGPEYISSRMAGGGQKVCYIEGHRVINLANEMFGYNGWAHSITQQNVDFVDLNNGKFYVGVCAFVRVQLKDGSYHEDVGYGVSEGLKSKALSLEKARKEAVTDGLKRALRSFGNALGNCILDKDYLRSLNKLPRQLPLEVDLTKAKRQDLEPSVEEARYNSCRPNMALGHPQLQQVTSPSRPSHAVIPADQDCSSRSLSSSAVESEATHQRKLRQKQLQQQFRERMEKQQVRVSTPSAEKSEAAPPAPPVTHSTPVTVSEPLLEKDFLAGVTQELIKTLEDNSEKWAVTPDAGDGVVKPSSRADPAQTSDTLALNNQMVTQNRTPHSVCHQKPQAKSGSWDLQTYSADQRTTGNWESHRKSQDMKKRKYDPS

[4] = MDA-MB-231 cell growth inhibition, dose response, cytotoxicity control for RAD54 inhibitor project, CellTiter-Glo luminescence, cherry-pick (AID 651692); type: functional, cell-based
[5] = molecular target: T3, DNA repair and recombination protein RAD54-like (Homo sapiens, UniProt Q92698); assay: inhibitors of human RAD54 branch migration, confirmation, biochemical, fluorescence, cherry-picked samples, dose series (AID 651657); type: functional
T3 sequence (Q92698 whole entry): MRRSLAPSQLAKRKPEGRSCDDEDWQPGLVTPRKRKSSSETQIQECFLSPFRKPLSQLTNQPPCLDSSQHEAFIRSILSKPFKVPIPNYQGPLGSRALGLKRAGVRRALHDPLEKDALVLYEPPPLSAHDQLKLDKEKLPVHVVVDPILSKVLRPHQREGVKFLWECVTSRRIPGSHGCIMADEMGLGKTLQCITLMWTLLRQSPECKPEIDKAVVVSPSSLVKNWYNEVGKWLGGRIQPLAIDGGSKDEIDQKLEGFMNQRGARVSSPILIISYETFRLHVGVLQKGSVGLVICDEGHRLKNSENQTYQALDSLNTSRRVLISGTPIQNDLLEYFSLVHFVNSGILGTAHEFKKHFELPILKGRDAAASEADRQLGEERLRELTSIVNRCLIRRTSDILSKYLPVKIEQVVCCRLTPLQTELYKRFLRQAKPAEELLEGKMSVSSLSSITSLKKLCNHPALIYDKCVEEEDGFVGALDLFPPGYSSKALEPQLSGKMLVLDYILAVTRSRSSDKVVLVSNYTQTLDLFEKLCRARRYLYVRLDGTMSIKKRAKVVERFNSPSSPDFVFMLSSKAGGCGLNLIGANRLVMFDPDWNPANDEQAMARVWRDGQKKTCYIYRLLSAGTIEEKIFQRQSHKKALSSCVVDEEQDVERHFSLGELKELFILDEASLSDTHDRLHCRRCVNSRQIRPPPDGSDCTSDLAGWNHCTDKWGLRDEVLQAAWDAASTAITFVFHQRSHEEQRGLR

[6] = molecular target: T4, Sentrin-specific protease 8 (Homo sapiens, UniProt Q96LD8); type: functional
T4 sequence (Q96LD8 whole entry): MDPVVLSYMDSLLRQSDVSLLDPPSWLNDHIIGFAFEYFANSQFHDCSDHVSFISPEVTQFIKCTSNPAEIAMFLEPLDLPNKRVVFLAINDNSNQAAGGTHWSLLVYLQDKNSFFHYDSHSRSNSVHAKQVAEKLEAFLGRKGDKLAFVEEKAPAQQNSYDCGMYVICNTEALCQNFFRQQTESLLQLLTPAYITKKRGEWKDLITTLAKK

[7] = molecular target: T4, Sentrin-specific protease 8; type: functional; remark: listed apart in the source
[8] = miR-122 activators in hepatoma reporter cells, dose response, cell-based, Huh7 psiCHECK-miR122, Renilla luciferase, cherry-picked (AID 651956); type: functional;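 further: huh7 hepatoma cells stably carrying a psiCHECK-2 miR-122 sensor plasmid; renilla luciferase signal reporting endogenous miR-122 activity after 48 h compound exposure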
[9] = molecular target: T5, Type-1 angiotensin II receptor (Homo sapiens, UniProt P30556); assay: AT1 receptor antagonists, dose response, selectivity assay for APJ receptor antagonist project, cell-based, uHTS hits (AID 463214); type: functional;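 further: antagonist potency against angiotensin II stimulated AT1 response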
T5 sequence (P30556 whole entry): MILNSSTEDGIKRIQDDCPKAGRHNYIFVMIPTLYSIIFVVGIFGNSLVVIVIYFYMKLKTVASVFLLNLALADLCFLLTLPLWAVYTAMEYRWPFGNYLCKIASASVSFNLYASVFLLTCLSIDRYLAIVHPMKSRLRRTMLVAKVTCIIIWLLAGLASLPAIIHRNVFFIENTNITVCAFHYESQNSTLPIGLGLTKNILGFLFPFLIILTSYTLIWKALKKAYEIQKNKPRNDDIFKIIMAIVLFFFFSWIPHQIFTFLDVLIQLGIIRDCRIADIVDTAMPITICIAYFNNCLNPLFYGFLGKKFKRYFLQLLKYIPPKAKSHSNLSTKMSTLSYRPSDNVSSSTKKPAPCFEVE

[10] = HEK293T cytotoxicity, dose response, cytotoxicity control for miR-122 modulator project, cell-based, activator set, cherry-pick (AID 720690); type: functional;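 further: HEK293T human cells scored for general mammalian cytotoxicity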
[11] = HEK293 cell cytotoxicity, dose response, cytotoxicity control, plate reader, cherry-picked samples (AID 743446); type: functional, cell-based
[12] = molecular target: G-protein coupled receptor 55 (Homo sapiens, UniProt Q9Y2T6); assay: GPR55 antagonists blocking LPI-driven arrestin recruitment, primary screen, imaging, U2OS, beta-arrestin-GFP, LPI agonist (AID 2013); type: functional;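 further: antagonist potency measured as reduced agonist-driven arrestin aggregation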
[13] = molecular target: T6, Replicative DNA helicase DnaB (Mycobacterium tuberculosis, UniProt P9WMR3); assay: DnaB intein splicing inhibitors, dose response, biochemical, cell-free fluorescence (AID 449749); type: functional
T6 sequence (P9WMR3 whole entry): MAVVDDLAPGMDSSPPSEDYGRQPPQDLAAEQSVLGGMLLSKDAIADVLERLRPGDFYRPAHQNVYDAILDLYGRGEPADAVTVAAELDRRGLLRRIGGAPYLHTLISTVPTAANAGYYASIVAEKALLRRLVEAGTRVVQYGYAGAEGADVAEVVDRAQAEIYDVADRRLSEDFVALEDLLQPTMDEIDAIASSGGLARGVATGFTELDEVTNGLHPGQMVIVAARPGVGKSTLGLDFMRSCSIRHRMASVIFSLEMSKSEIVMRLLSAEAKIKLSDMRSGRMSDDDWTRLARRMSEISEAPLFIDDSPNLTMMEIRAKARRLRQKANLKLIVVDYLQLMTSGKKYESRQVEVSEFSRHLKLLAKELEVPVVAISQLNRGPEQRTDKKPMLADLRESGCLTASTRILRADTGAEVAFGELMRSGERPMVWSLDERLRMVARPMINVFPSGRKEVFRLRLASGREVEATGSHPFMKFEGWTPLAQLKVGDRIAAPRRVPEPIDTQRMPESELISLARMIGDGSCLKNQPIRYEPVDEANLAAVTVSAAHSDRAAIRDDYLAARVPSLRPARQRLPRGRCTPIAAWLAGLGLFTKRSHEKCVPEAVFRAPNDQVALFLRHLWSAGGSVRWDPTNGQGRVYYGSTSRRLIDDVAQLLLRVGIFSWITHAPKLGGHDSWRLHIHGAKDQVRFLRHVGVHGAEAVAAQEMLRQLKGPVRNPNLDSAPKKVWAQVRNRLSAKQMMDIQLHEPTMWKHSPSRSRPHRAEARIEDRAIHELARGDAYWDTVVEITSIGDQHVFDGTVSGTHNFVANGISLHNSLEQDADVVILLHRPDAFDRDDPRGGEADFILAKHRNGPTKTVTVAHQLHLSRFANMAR

[14] = inhibitors of intracellular T. cruzi replication, confirmation, NIH3T3 host cells, beta-gal luminescence (AID 2044); type: functional, cell-based;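 further: intracellular parasites grown in NIH/3T3 mouse fibroblasts as host cells; luminescent beta-galactosidase reporter signal from transgenic T. cruzi replicating inside host cells; inhibitors lower the luminescence signal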
[15] = HEK293T cytotoxicity, dose response, cytotoxicity control for miR-122 modulator project, cell-based, inhibitor set, cherry-pick, set 2 (AID 720697); type: functional
Protein RecA = molecular target: T7, Protein RecA (Mycobacterium tuberculosis, UniProt P9WHJ3); assay: Fluorescence Cell-Free Homogeneous Dose Retest to Identify Inhibitors of RecA-Intein Splicing Activity. [Related pubchem assays (depositor defined):AID2097, AID2223, AID489010, AID492950]; type: functional
T7 sequence (P9WHJ3 whole entry): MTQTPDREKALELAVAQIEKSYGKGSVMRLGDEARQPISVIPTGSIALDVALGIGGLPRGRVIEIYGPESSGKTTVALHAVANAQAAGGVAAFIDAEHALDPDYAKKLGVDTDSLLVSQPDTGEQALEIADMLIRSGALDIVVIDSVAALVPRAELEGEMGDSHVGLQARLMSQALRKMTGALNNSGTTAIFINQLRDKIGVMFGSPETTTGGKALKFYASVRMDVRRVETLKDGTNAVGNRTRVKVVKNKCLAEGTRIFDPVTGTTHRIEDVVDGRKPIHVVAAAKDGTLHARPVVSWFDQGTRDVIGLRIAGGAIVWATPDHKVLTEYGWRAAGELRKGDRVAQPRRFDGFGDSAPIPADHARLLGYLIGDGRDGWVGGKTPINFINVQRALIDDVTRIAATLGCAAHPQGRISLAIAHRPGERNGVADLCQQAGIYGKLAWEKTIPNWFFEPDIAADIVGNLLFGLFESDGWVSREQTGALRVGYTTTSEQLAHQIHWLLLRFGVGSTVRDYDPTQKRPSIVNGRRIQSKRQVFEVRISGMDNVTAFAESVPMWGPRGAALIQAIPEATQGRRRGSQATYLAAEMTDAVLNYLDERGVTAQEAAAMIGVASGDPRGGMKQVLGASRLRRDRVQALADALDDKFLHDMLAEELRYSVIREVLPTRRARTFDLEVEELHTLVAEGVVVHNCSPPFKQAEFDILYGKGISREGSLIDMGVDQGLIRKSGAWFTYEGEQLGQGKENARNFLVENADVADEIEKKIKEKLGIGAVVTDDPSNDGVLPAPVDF

[16] = HepG2 cell cytotoxicity, dose response, cytotoxicity control, plate reader, cherry-pick, antagonist series (AID 743416); type: functional, cell-based
[17] = LGR2 antagonists, dose response, cell-based, HEK293, CRE-luciferase reporter, cherry pick, set 2 (AID 743343); type: functional;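 further: transfected cells were stimulated with diluted bursicon conditioned medium after compound addition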
Beta Lactamase = Beta Lactamase (Pseudomonas aeruginosa, UniProt Q932Y6); assay: beta-lactamase reporter inhibitor potency, dose response, artefact control for NOD2-RIPK2 interaction inhibitor project, BLA reporter cells, FRET fluorescence (AID 651552); type: functional, cell-based
Beta-galactosidase = Beta-galactosidase (Escherichia coli, UniProt Q8VNN2); assay: PubChem AID 485352; type: functional
[18] = Fluorescence-based cell-based high throughput dose response assay for inhibitors of the interaction of nucleotide-binding oligomerization domain containing 2 (NOD2) and the receptor-interacting serine-threonine kinase 2 (RIPK2).; type: functional; details: Homo sapiens
[19] = cytotoxicity toward NIH3T3 fibroblasts, dose response, counter-screen, cell-based, ATP luminescence, mouse fibroblasts (AID 2010); type: functional;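 further: cells exposed to compound for about 90 hours before reading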
[20] = A549 cell cytotoxicity, dose response, cytotoxicity control, plate reader, cherry-pick, antagonist series (AID 743412); type: functional, cell-based
[21] = MC4R antagonists, dose response, counter-screen for LGR2 antagonist project, cell-based, plate reader, cherry pick (AID 743444); type: functional;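 further: transfected HEK 293 cells stimulated with alpha-MSH peptide; potency of inhibitors of the alpha-MSH evoked signal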

SMILES: CC(=O)Oc1ccc(N2C(=O)C3C(C2=O)C(C(=O)c2ccc(Cl)cc2)N2CCCC32)cc1 (stereo not given)
- IC50 [1]: 4.65 µM (active)
- EC50 (Troponin, cardiac muscle): 23.5 µM (inactive)
- IC50 [2]: 7.5 µM (active)

SMILES: CN(C)CCCNc1cc(-c2ccccc2)nc2cc(-c3cccc(F)c3)nn12
- AC50 [3]: 15.1 µM (active)
- AC50 [4]: 24.4 µM (active)
- AC50 [5]: 21.1 µM (active)

SMILES: Cn1cnc2c(O)ncc([N+](=O)[O-])c21
- IC50 [6]: 10.4 µM (active)
- IC50 [7]: > 100 µM (inactive)

SMILES: CNC(=O)c1nnsc1S(=O)(=O)c1ccc(Cl)cc1
- AC50 [8]: 18.8 µM (active)
- IC50 [9]: 9.67 µM (active)
- AC50 [10]: 2.7 µM (active)
- AC50 [11]: 7.5 µM (active)
- IC50 [12]: 10.6 µM (inactive)
- AC50 [13]: 15.3 µM (active)
- EC50 [14]: 1.24 µM (active)
- AC50 [15]: 4.54 µM (active)
- EC50 (Protein RecA): 14.3 µM (active)
- AC50 [16]: 7.37 µM (active)
- AC50 [17]: 3.74 µM (active)
- IC50 (Beta Lactamase): 11.3 µM (inactive)
- EC50 (Beta-galactosidase): > 40 µM (inactive)
- IC50 [18]: 2.13 µM (active)
- EC50 [19]: 2.47 µM (active)
- AC50 [20]: 8.58 µM (active)
- AC50 [21]: 3.28 µM (active)

— ChEMBL document CHEMBL1201862, “PubChem BioAssay data set” (2004)
